pEC50: −log10 of the molar value.
Biological target: human orexin type 2 receptor (hOX2R) (Homo sapiens (Human), UniProt O43614)
Experiment: Measurement of orexin type 2 receptor agonist activity (Experimental Example 2-1, FLIPR TETRA, intracellular Ca2+)
Assay type: cell-based
Conditions: CHO dhfr- cells expressing hOX2R, FLIPR TETRA, Fluo-4AM; for Emax: read-out: Emax (%)

Sequence of human orexin type 2 receptor (hOX2R) (O43614 whole entry): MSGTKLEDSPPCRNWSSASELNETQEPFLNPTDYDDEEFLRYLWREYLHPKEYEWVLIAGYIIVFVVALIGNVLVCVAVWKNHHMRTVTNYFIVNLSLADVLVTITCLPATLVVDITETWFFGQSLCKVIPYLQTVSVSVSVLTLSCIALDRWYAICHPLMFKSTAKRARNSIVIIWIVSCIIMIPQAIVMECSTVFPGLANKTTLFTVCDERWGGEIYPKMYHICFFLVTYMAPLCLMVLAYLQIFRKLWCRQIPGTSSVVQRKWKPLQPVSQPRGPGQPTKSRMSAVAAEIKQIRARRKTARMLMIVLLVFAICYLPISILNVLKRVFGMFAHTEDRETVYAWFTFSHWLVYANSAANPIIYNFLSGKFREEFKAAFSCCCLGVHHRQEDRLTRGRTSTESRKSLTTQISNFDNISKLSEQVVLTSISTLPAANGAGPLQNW

| pEC50 | Emax | Emax (%) | SMILES |
| --- | --- | --- | --- |
| 10.28 | 103% |  | CCNC(=O)N1CCC[C@H](NS(C)(=O)=O)[C@@H]1CO[C@H]1CC[C@@H](c2cccc(F)c2)CC1 [Example 148, (2R,3S)-N-ethyl-2-(((cis-4-(3-fluorophenyl)cyclohexyl)oxy)methyl)-3-((methylsulfonyl)amino)piperidine-1-carboxamide] |
| 7.60 | 100% |  | CS(=O)(=O)N[C@H]1CCCN(C(=O)[C@H]2CCOC2)[C@H]1CO[C@H]1CC[C@@H](c2ccccc2)CC1 [Example 149, N-(cis-2-(((cis-4-phenylcyclohexyl)oxy)methyl)-1-((3S)-tetrahydrofuran-3-ylcarbonyl)piperidin-3-yl)methanesulfonamide] |
| 7.52 | 99% |  | CS(=O)(=O)N[C@H]1CCCN(C(=O)[C@@H]2CCOC2)[C@H]1CO[C@H]1CC[C@@H](c2ccccc2)CC1 [Example 150, N-(cis-2-(((cis-4-phenylcyclohexyl)oxy)methyl)-1-((3R)-tetrahydrofuran-3-ylcarbonyl)piperidin-3-yl)methanesulfonamide] |
| 7.77 | 106% |  | CS(=O)(=O)N[C@H]1CCCN(C(=O)CC#N)[C@H]1CO[C@H]1CC[C@@H](c2ccccc2)CC1 [Example 180, N-((2R,3S)-1-(cyanoacetyl)-2-(((cis-4-phenylcyclohexyl)oxy)methyl)piperidin-3-yl)methanesulfonamide] |
|  | 89% |  | CS(=O)(=O)CC(=O)N1CCC[C@H](NS(C)(=O)=O)[C@@H]1CO[C@H]1CC[C@@H](c2ccccc2)CC1 [Example 181, N-((2R,3S)-1-((methylsulfonyl)acetyl)-2-(((cis-4-phenylcyclohexyl)oxy)methyl)piperidin-3-yl)methanesulfonamide] |
| 8.64 | 92% |  | CCC(=O)N1CCC[C@H](NS(C)(=O)=O)[C@@H]1CO[C@H]1CC[C@@H](c2ccccc2)CC1 [Example 182, N-((2R,3S)-2-(((cis-4-phenylcyclohexyl)oxy)methyl)-1-propionylpiperidin-3-yl)methanesulfonamide] |
| 7.40 | 94% |  | CS(=O)(=O)N[C@H]1CCCN(C(=O)[C@H]2CCC(=O)O2)[C@H]1CO[C@H]1CC[C@@H](c2ccccc2)CC1 [Example 183, N-((2R,3S)-1-(((2R)-5-oxotetrahydrofuran-2-yl)carbonyl)-2-(((cis-4-phenylcyclohexyl)oxy)methyl)piperidin-3-yl)methanesulfonamide] |
| 8.03 | 93% |  | CS(=O)(=O)N[C@H]1CCCN(C(=O)[C@@H]2CCC(=O)O2)[C@H]1CO[C@H]1CC[C@@H](c2ccccc2)CC1 [Example 184, N-((2R,3S)-1-(((2S)-5-oxotetrahydrofuran-2-yl)carbonyl)-2-(((cis-4-phenylcyclohexyl)oxy)methyl)piperidin-3-yl)methanesulfonamide] |
| 7.68 | 98% |  | CS(=O)(=O)N[C@H]1CCCN(C(=O)CO)[C@H]1CO[C@H]1CC[C@@H](c2ccccc2)CC1 [Example 185, N-((2R,3S)-1-glycoloyl-2-(((cis-4-phenylcyclohexyl)oxy)methyl)piperidin-3-yl)methanesulfonamide] |
| 6.43 | 93% |  | CS(=O)(=O)N[C@H]1CCCN(C(=O)C2(C#N)CC2)[C@H]1CO[C@H]1CC[C@@H](c2ccccc2)CC1 [Example 187, N-((2R,3S)-1-((1-cyanocyclopropyl)carbonyl)-2-(((cis-4-phenylcyclohexyl)oxy)methyl)piperidin-3-yl)methanesulfonamide] |
| 7.64 | 97% |  | C[C@H](O)C(=O)N1CCC[C@H](NS(C)(=O)=O)[C@@H]1CO[C@H]1CC[C@@H](c2ccccc2)CC1 [Example 188, N-((2R,3S)-1-((2S)-2-hydroxypropanoyl)-2-(((cis-4-phenylcyclohexyl)oxy)methyl)piperidin-3-yl)methanesulfonamide] |
| 8.54 | 107% |  | [2H]C([2H])([2H])OC(=O)N1CCC[C@H](NS(C)(=O)=O)[C@@H]1CO[C@H]1CC[C@@H](c2ccccc2)CC1 [Example 191, methyl-d3 (2R,3S)-3-((methylsulfonyl)amino)-2-(((cis-4-phenylcyclohexyl)oxy)methyl)piperidine-1-carboxylate] |
|  | 95% |  | COC(=O)N1CCC[C@H](NS(C)(=O)=O)[C@@H]1CO[C@H]1CC[C@@H](c2cccc(F)c2)CC1 [Example 200, methyl (2R,3S)-2-(((cis-4-(3-fluorophenyl)cyclohexyl)oxy)methyl)-3-((methylsulfonyl)amino)piperidine-1-carboxylate] |
| 9.36 | 102% |  | CS(=O)(=O)N[C@H]1CCCN(C(=O)C2CC2)[C@H]1CO[C@H]1CC[C@@H](c2c(F)cccc2F)CC1 [Example 213, N-((2R,3S)-1-(cyclopropylcarbonyl)-2-(((cis-4-(2,6-difluorophenyl)cyclohexyl)oxy)methyl)piperidin-3-yl)methanesulfonamide] |
| 8.82 | 105% |  | CS(=O)(=O)N[C@H]1CCCN(C(=O)C2CC2)[C@H]1CO[C@H]1CC[C@@H](c2cc(F)ccc2F)CC1 [Example 214, N-((2R,3S)-1-(cyclopropylcarbonyl)-2-(((cis-4-(2,5-difluorophenyl)cyclohexyl)oxy)methyl)piperidin-3-yl)methanesulfonamide] |
| 8.60 | 105% |  | COC(=O)N1CCC[C@H](NS(C)(=O)=O)[C@@H]1CO[C@H]1CC[C@@H](c2c(F)cccc2F)CC1 [Example 215, methyl (2R,3S)-2-(((cis-4-(2,6-difluorophenyl)cyclohexyl)oxy)methyl)-3-((methylsulfonyl)amino)piperidine-1-carboxylate] |
| 7.89 |  | 110% | CC(=O)N1CCC[C@H](NS(C)(=O)=O)[C@@H]1CO[C@H]1CC[C@@H](c2cc(F)ccc2F)CC1 [Example 217, N-((2R,3S)-1-acetyl-2-(((cis-4-(2,5-difluorophenyl)cyclohexyl)oxy)methyl)piperidin-3-yl)methanesulfonamide] |
| 5.80 | 96% |  | CS(=O)(=O)N[C@H]1CCCN(C(=O)[C@@H]2C[C@@H]2F)[C@H]1COC1CCN(c2ccccc2F)CC1 [Example 221, N-(cis-1-(((1S,2S)-2-fluorocyclopropyl)carbonyl)-2-(((1-(2-fluorophenyl)piperidin-4-yl)oxy)methyl)piperidin-3-yl)methanesulfonamide] |
| 5.68 | 102% |  | CS(=O)(=O)N[C@H]1CCCN(C(=O)[C@H]2C[C@@H]2F)[C@H]1COC1CCN(c2ccccc2F)CC1 [Example 222, N-(cis-1-(((1R,2S)-2-fluorocyclopropyl)carbonyl)-2-(((1-(2-fluorophenyl)piperidin-4-yl)oxy)methyl)piperidin-3-yl)methanesulfonamide] |
| 6.55 | 102% |  | CS(=O)(=O)N[C@H]1CCCN[C@H]1CO[C@H]1CC[C@@H](c2cc(F)cc(F)c2F)CC1 [Example 239, N-((2R,3S)-2-(((cis-4-(2,3,5-trifluorophenyl)cyclohexyl)oxy)methyl)piperidin-3-yl)methanesulfonamide] |
| 7.62 | 107% |  | CC(=O)N1CCC[C@H](NS(C)(=O)=O)[C@@H]1CO[C@H]1CC[C@@H](c2ccccc2F)CC1 [Example 240, N-((2R,3S)-1-acetyl-2-(((cis-4-(2-fluorophenyl)cyclohexyl)oxy)methyl)piperidin-3-yl)methanesulfonamide] |
